This note sets out measurements from patent publication US11566007B2, “Ras inhibitors” (Revolution Medicines, Inc., priority 2019, dated 2023).

For experiment [1], the system named is NCI-H358 cells (K-Ras G12C). Put plainly: Potency assay: pERK in NCI-H358 cells. As to conditions: Homo sapiens, NCI-H358; H358 KRAS G12C; read-out: pERK EC50. The format is cell-based, human. Summed up:
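pERK decrease read by AlphaLISA SureFire p-ERK1/2 or In-Cell Western after 4 h compound exposure at 37 °C, 5% CO2.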

In another experiment the target is KRAS G12S (Homo sapiens (Human), UniProt P01116+P62937, G12S). Put plainly: Ras-Raf (BRAF RBD) disruption / FRET / MOA assay, KRAS G12S. The format is biochemical. As to conditions: Ras-Raf disruption/FRET/MOA assay; class symbols; read-out: KRAS G12S FRET data IC50. The method in brief:
(§1)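 Compounds, top final concentration 30 μM in 10-point 3-fold series, incubated 3 hours at 25° C with nucleotide-loaded Ras, cyclophilin A and BRAF RBD.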

In the next experiment the target is NRAS Q61K (Homo sapiens (Human), UniProt P01111+P62937, Q61K). Put plainly: Ras-Raf (BRAF RBD) disruption / FRET / MOA assay, NRAS Q61K. The format is biochemical. The following applies: NRAS Q61K; Ras-Raf disruption/FRET/MOA assay; read-out: IC50* NRAS Q61K FRET data. Summed up: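 TR-FRET disruption of nucleotide-loaded Ras binding to BRAF RBD via compound-driven ternary complex with cyclophilin A. Compound as 10-point 3-fold series from 30 μM final, 3 h at 25° C, then anti-His Eu-W1024 (10 nM) and anti-GST allophycocyanin (50 nM) for 1.5 h. IC50 from decreased FRET ratio versus DMSO.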

The target of a further experiment is NRAS G12C (Homo sapiens (Human), UniProt P01111+P62937, G12C). Put plainly: Ras-Raf (BRAF RBD) disruption / FRET / MOA assay, NRAS G12C. The format is biochemical. As to conditions: read-out: IC50* NRAS G12C FRET data. Summed up:
as §1

Some results are limits rather than exact numbers.

Sequence of NRAS Q61K (P01111 whole entry Q61K): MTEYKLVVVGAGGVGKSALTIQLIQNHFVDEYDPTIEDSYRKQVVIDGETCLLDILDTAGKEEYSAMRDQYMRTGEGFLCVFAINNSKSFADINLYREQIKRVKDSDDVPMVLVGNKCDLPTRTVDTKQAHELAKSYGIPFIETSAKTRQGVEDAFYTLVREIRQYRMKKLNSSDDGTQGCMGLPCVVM
Sequence of NRAS Q61K (P62937 whole entry): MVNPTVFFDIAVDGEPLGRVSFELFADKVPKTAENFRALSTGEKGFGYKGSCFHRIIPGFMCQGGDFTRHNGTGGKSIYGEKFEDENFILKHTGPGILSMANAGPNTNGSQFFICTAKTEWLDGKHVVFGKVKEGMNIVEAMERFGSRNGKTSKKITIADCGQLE
Sequence of NRAS G12C (P01111 whole entry G12C): as the sequence (P01111 whole entry Q61K) above, with G12C, K61Q counted along it
Sequence of NRAS G12C (P62937 whole entry): as the sequence (P62937 whole entry) above
Sequence of KRAS G12S (P01116-2 other isoform, or with tags, fused parts or gaps G12S): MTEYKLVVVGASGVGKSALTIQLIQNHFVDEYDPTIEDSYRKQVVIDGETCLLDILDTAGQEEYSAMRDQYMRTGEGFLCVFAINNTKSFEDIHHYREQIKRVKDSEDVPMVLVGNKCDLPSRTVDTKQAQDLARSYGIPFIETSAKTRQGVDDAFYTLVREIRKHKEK
Sequence of KRAS G12S (P62937 whole entry): as the sequence (P62937 whole entry) above

In the case of `C=CC(=O)N1CCC2(CCN(C(=O)N(C)[C@H](C(=O)N[C@H]3Cc4nc(cs4)-c4ccc5c(c4)c(c(-c4cccnc4[C@H](C)OC)n5CC)CC(C)(C)COC(=O)[C@@H]4CCCN(N4)C3=O)C(C)C)CC2)C1` (atropisomer, axis not shown) [Example A698], the EC50 (usually the concentration that produces a half-maximal response) in experiment [1] is under 5000 nM. The figures for the IC50 at KRAS G12S, at NRAS Q61K and on NRAS G12C were 100 to 1000 nM, 10 to 100 nM and 10 to 100 nM, respectively.
`CCn1c(-c2cccnc2[C@H](C)OC)c2c3cc(ccc31)-c1csc(n1)C[C@H](NC(=O)[C@H](C(C)C)N(C)C(=O)N1CCN(C(=O)/C=C/CN(C)C)C3(CC3)C1)C(=O)N1CCC[C@H](N1)C(=O)OCC(C)(C)C2` (atropisomer, axis not shown) [Example A701]: the EC50 in experiment [1] is under 5000 nM. Further, the IC50 (commonly the midpoint of a concentration-inhibition curve) lay in the range of 100 to 1000 nM at KRAS G12S, 10 to 100 nM on NRAS Q61K and 10 to 100 nM at NRAS G12C.
With `C=CC(=O)N1CCC2(CC1)CN(C(=O)N(C)[C@H](C(=O)N[C@H]1Cc3nc(cs3)-c3ccc4c(c3)c(c(-c3cccnc3[C@H](C)OC)n4CC)CC(C)(C)COC(=O)[C@@H]3CCCN(N3)C1=O)C(C)C)C2` (atropisomer, axis not shown) [Example A702], the EC50 in experiment [1] was under 5000 nM. The IC50 on KRAS G12S lay in the range of 100 to 1000 nM; on NRAS Q61K, 10 to 100 nM; at NRAS G12C, 100 to 1000 nM.
Take `C=CC(=O)N(C)[C@H]1C[C@@H](N(C)C(=O)N(C)[C@H](C(=O)N[C@H]2Cc3nc(cs3)-c3ccc4c(c3)c(c(-c3cccnc3[C@H](C)OC)n4CC)CC(C)(C)COC(=O)[C@@H]3CCCN(N3)C2=O)C(C)C)C1` (atropisomer, axis not shown) [Example A704]: the EC50 in experiment [1] was under 5000 nM. In addition, the IC50 is 100 to 1000 nM at KRAS G12S, 10 to 100 nM on NRAS Q61K and 10 to 100 nM on NRAS G12C.
Take `C=CC(=O)N(C)[C@H]1C[C@H](N(C)C(=O)N(C)[C@H](C(=O)N[C@H]2Cc3nc(cs3)-c3ccc4c(c3)c(c(-c3cccnc3[C@H](C)OC)n4CC)CC(C)(C)COC(=O)[C@@H]3CCCN(N3)C2=O)C(C)C)C1` (atropisomer, axis not shown) [Example A712]: the EC50 in experiment [1] was under 5000 nM. For the same molecule, the IC50 at KRAS G12S, at NRAS Q61K and at NRAS G12C was 10 to 100 nM throughout.
For `C=CC(=O)N1CCO[C@@H]2CN(C(=O)N(C)[C@H](C(=O)N[C@H]3Cc4nc(cs4)-c4ccc5c(c4)c(c(-c4cccnc4[C@H](C)OC)n5CC)CC(C)(C)COC(=O)[C@@H]4CCCN(N4)C3=O)C(C)C)C[C@@H]21` (atropisomer, axis not shown) [Example A714], the EC50 in experiment [1] is under 5000 nM. Besides, the IC50 on KRAS G12S, at NRAS Q61K and on NRAS G12C was 100 to 1000 nM in each case.
`CCn1c(-c2cccnc2[C@H](C)OC)c2c3cc(ccc31)N1CCC[C@@H](C[C@H](NC(=O)[C@@H](COC3CN(C(=O)C#CC(C)(C)N(C)C)C3)C(C)C)C(=O)N3CCC[C@H](N3)C(=O)OCC(C)(C)C2)C1` (atropisomer, axis not shown) [Example A715, (2R)-2-(((1-(4-(dimethylamino)-4-methylpent-2-ynoyl)azetidin-3-yl)oxy)methyl)-N-((2^3S,6^3S,4S)-1^1-ethyl-1^2-(2-((S)-1-methoxyethyl)pyridin-3-yl)-10,10-dimethyl-5,7-dioxo-6^1,6^2,6^3,6^4,6^5,6^6-hexahydro-1^1H-8-oxa-1(5,3)-indola-6(1,3)-pyridazina-2(1,3)-piperidinacycloundecaphane-4-yl)-3-methylbutanamide]: in experiment [1], the EC50 is under 5000 nM. In addition, the IC50 on KRAS G12S is over 10000 nM; on NRAS Q61K it was over 10000 nM; on NRAS G12C, 10 to 100 nM.
Take `C=CC(=O)N1CCN(C(=O)N(C)[C@H](C(=O)N[C@H]2Cc3nc(cs3)-c3ccc4c(c3)c(c(-c3cccnc3[C@H](C)OC)n4CC)CC(C)(C)COC(=O)[C@@H]3CCCN(N3)C2=O)C(C)C)[C@@H]2CC[C@@H]21` (atropisomer, axis not shown) [Example A718]: the half-maximal effective concentration (EC50) in experiment [1] is under 5000 nM. The IC50 fell in the range of 100 to 1000 nM at KRAS G12S, 10 to 100 nM on NRAS Q61K and 100 to 1000 nM on NRAS G12C.
For the molecule `C=CC(=O)N1CC[C@]2(CCN(C(=O)N(C)[C@H](C(=O)N[C@H]3Cc4nc(cs4)-c4ccc5c(c4)c(c(-c4cccnc4[C@H](C)OC)n5CC)CC(C)(C)COC(=O)[C@@H]4CCCN(N4)C3=O)C(C)C)C2)C1` (atropisomer, axis not shown) [Example A719], the EC50 in experiment [1] was under 5000 nM. The IC50 on KRAS G12S is 100 to 1000 nM; at NRAS Q61K, 10 to 100 nM; on NRAS G12C, 10 to 100 nM.
For the molecule `C=CC(=O)N1CC(OC[C@H](C(=O)N[C@H]2Cc3cc(F)cc(c3)-c3ccc4c(c3)c(c(-c3cccnc3[C@H](C)OC)n4CC(F)(F)F)CC(C)(C)COC(=O)[C@@H]3CCCN(N3)C2=O)C(C)C)C1` (atropisomer, axis not shown) [Example A725], the EC50 in experiment [1] was under 5000 nM. The IC50 on KRAS G12S fell in the range of 1000 to 10000 nM; on NRAS Q61K it was 1000 to 10000 nM; at NRAS G12C, 100 to 1000 nM.
Take `C=CC(=O)N1CC[C@H](N(C)C(=O)N(C)[C@H](C(=O)N[C@H]2Cc3nc(cs3)-c3ccc4c(c3)c(c(-c3cccnc3[C@H](C)OC)n4CC)CC(C)(C)COC(=O)[C@@H]3CCCN(N3)C2=O)C(C)C)C1` (atropisomer, axis not shown) [Example A728]: the EC50 in experiment [1] is under 5000 nM. Also, the IC50 at KRAS G12S, at NRAS Q61K and at NRAS G12C was 100 to 1000 nM in each case.
`C=CC(=O)N1CCN(C(=O)N(C)[C@H](C(=O)N[C@H]2Cc3nc(cs3)-c3ccc4c(c3)c(c(-c3cccnc3[C@H](C)OC)n4CC)CC(C)(C)COC(=O)[C@@H]3CCCN(N3)C2=O)C(C)C)[C@H]2CC[C@H]21` (atropisomer, axis not shown) [Example A734]: the EC50 in experiment [1] is under 5000 nM. Further, the IC50 on KRAS G12S, at NRAS Q61K and on NRAS G12C was 10 to 100 nM each time.
In the case of `C=CC(=O)N1CC2(C1)OCCCN2C(=O)N(C)[C@H](C(=O)N[C@H]1Cc2nc(cs2)-c2ccc3c(c2)c(c(-c2cccnc2[C@H](C)OC)n3CC)CC(C)(C)COC(=O)[C@@H]2CCCN(N2)C1=O)C(C)C` (atropisomer, axis not shown) [Example A735, 2-acryloyl-N-((2S)-1-(((6^3S,4S,Z)-1^1-ethyl-1^2-(2-((S)-1-methoxyethyl)pyridin-3-yl)-10,10-dimethyl-5,7-dioxo-6^1,6^2,6^3,6^4,6^5,6^6-hexahydro-1^1H-8-oxa-2(4,2)-thiazola-1(5,3)-indola-6(1,3)-pyridazinacycloundecaphane-4-yl)amino)-3-methyl-1-oxobutan-2-yl)-N-methyl-5-oxa-2,9-diazaspiro[3.5]nonane-9-carboxamide], the EC50 in experiment [1] is under 5000 nM. Also, the IC50 is over 10000 nM at KRAS G12S, 1000 to 10000 nM on NRAS Q61K and under 10 nM at NRAS G12C.
In the same order, the values of `C=CC(=O)N(C)[C@@H]1C[C@H]1N(C)C(=O)N(C)[C@H](C(=O)N[C@H]1Cc2nc(cs2)-c2ccc3c(c2)c(c(-c2cccnc2[C@H](C)OC)n3CC)CC(C)(C)COC(=O)[C@@H]2CCCN(N2)C1=O)C(C)C` (atropisomer, axis not shown) [Example A739] are under 5000 nM, 1000 to 10000 nM, 10 to 100 nM and 100 to 1000 nM.
